According to US8030443B2, “Squamous cell carcinoma antigen-derived peptide binding to HLA-A24 molecule” (Kurume University, priority 2005, dated 2011):

System: peptide-specific IgG in sera of cancer patients and healthy donors
Assay: Measurement of anti-peptide IgG in plasma by LUMINEX multiplexed flow cytometric assay
Assay type: binding, human
Procedure: The levels of anti-peptide immunoglobulin G (IgG) were measured by the LUMINEX™ system (multiplexed flow cytometric assay) as previously reported (Komatsu N, Shichijo S, Nakagawa M, Itoh K. New multiplexed flow cytometric assay to measure anti-peptide antibody: a novel tool for monitoring immune responses to peptides used for immunization. Scand J Clin Lab Invest 2004; 64:1-11). In brief, plasma was incubated with 25 μl of peptide-coupled color-coded beads for 2 hr at room temperature on a plate shaker. After incubation, the mixture was washed with a vacuum manifold apparatus and incubated with 100 μl of biotinylated goat anti-human IgG (γ chain-specific)(BA-3080, Vector Laboratories, Burlingame, Calif., USA) for 1 h at room temperature. The plate was then washed, followed by the addition of 100 μl of streptavidin-PE (S-866, Molecular Probes, Eugene, Oreg., USA) into wells, and was incubated for 30 min at room temperature on a plate shaker. The bound beads were washed three times followed by the addition of 100 μl of Tween-PBS into each well. Fifty μl of sample was detected using the LUMINEX™ system (multiplexed flow cytometric assay). To confirm the specificity of IgG to a SCCA peptide, sample plasma was cultured in plates coated with a corresponding SCCA peptide, or with an irrelevant SCCA peptide. After the operation was repeated three times, the levels of the corresponding SCCA peptide-specific IgG in the resulting supernatant were determined by the LUMINEX™ system (multiplexed flow cytometric assay).
These 9 SCCA-derived peptides were screened based on their ability to be recognized by IgG in cancer patients. Peptide-specific IgG was measured by a multiplexed flow cytometric assay (LUMINEX™ (multiplexed flow cytometric assay)). The plasma samples were derived from 35 uterine cervical SCC patients, 10 breast adenocarcinoma patients, 10 pancreatic adenocarcinoma patients, 10 gastric adenocarcinoma, and 6 colon adenocarcinoma patients. The level of fluorescence intensity was judged to be significant when exceeded 100 at an 1/100 dilution.

EYLDAIKKF (SCCA 118-126 peptide) [SCCA-derived peptide, position 118-126]
Total: healthy donors with significant peptide-reactive IgG / donors tested (10 healthy donors, significant when fluorescence intensity exceeded 100 at 1/100 dilution): 2/10 | Total: cancer patients with significant peptide-reactive IgG / patients tested (71 cancer patients, significant when fluorescence intensity exceeded 100 at 1/100 dilution): 7/71 | Fluorescence intesity (serum of Breast Ca. patient #36, 1:100 dilution): 5 | Fluorescence intesity (serum of Breast Ca. patient #37, 1:100 dilution): 23 | Fluorescence intesity (serum of Breast Ca. patient #38, 1:100 dilution): 1 | Fluorescence intesity (serum of Breast Ca. patient #39, 1:100 dilution): 1 | Fluorescence intesity (serum of Breast Ca. patient #40, 1:100 dilution): 0 | Fluorescence intesity (serum of Breast Ca. patient #41, 1:100 dilution): 123 | Fluorescence intesity (serum of Breast Ca. patient #42, 1:100 dilution): 14 | Fluorescence intesity (serum of Breast Ca. patient #43, 1:100 dilution): 7 | Fluorescence intesity (serum of Breast Ca. patient #44, 1:100 dilution): 0 | Fluorescence intesity (serum of Breast Ca. patient #45, 1:100 dilution): 18 | Fluorescence intesity (serum of Colon Ca. patient #66, 1:100 dilution): 2 | Fluorescence intesity (serum of Colon Ca. patient #67, 1:100 dilution): 0 | Fluorescence intesity (serum of Colon Ca. patient #68, 1:100 dilution): 0 | Fluorescence intesity (serum of Colon Ca. patient #69, 1:100 dilution): 0 | Fluorescence intesity (serum of Colon Ca. patient #70, 1:100 dilution): 0 | Fluorescence intesity (serum of Colon Ca. patient #71, 1:100 dilution): 17 | Fluorescence intesity (serum of Gastric Ca. patient #56, 1:100 dilution): 0 | Fluorescence intesity (serum of Gastric Ca. patient #57, 1:100 dilution): 0 | Fluorescence intesity (serum of Gastric Ca. patient #58, 1:100 dilution): 0 | Fluorescence intesity (serum of Gastric Ca. patient #59, 1:100 dilution): 21 | Fluorescence intesity (serum of Gastric Ca. patient #60, 1:100 dilution): 0 | Fluorescence intesity (serum of Gastric Ca. patient #61, 1:100 dilution): 5 | Fluorescence intesity (serum of Gastric Ca. patient #62, 1:100 dilution): 0 | Fluorescence intesity (serum of Gastric Ca. patient #63, 1:100 dilution): 0 | Fluorescence intesity (serum of Gastric Ca. patient #64, 1:100 dilution): 2 | Fluorescence intesity (serum of Gastric Ca. patient #65, 1:100 dilution): 0 | Fluorescence intesity (serum of Healthy Donor #1, 1:100 dilution): 0 | Fluorescence intesity (serum of Healthy Donor #2, 1:100 dilution): 47 | Fluorescence intesity (serum of Healthy Donor #3, 1:100 dilution): 0 | Fluorescence intesity (serum of Healthy Donor #4, 1:100 dilution): 0 | Fluorescence intesity (serum of Healthy Donor #5, 1:100 dilution): 0 | Fluorescence intesity (serum of Healthy Donor #6, 1:100 dilution): 0 | Fluorescence intesity (serum of Healthy Donor #7, 1:100 dilution): 0 | Fluorescence intesity (serum of Healthy Donor #8, 1:100 dilution): 324 | Fluorescence intesity (serum of Healthy Donor #9, 1:100 dilution): 37 | Fluorescence intesity (serum of Healthy Donor #10, 1:100 dilution): 0 | Fluorescence intesity (serum of Pancreas Ca. patient #46, 1:100 dilution): 0 | Fluorescence intesity (serum of Pancreas Ca. patient #47, 1:100 dilution): 0 | Fluorescence intesity (serum of Pancreas Ca. patient #48, 1:100 dilution): 404 | Fluorescence intesity (serum of Pancreas Ca. patient #49, 1:100 dilution): 0 | Fluorescence intesity (serum of Pancreas Ca. patient #50, 1:100 dilution): 0 | Fluorescence intesity (serum of Pancreas Ca. patient #51, 1:100 dilution): 0 | Fluorescence intesity (serum of Pancreas Ca. patient #52, 1:100 dilution): 79 | Fluorescence intesity (serum of Pancreas Ca. patient #53, 1:100 dilution): 0 | Fluorescence intesity (serum of Pancreas Ca. patient #54, 1:100 dilution): 0 | Fluorescence intesity (serum of Pancreas Ca. patient #55, 1:100 dilution): 0 | Fluorescence intesity (serum of Uterine cervical Ca. patient #1, 1:100 dilution): 0 | Fluorescence intesity (serum of Uterine cervical Ca. patient #2, 1:100 dilution): 0 | Fluorescence intesity (serum of Uterine cervical Ca. patient #3, 1:100 dilution): 0 | Fluorescence intesity (serum of Uterine cervical Ca. patient #4, 1:100 dilution): 0 | Fluorescence intesity (serum of Uterine cervical Ca. patient #5, 1:100 dilution): 0 | Fluorescence intesity (serum of Uterine cervical Ca. patient #6, 1:100 dilution): 507 | Fluorescence intesity (serum of Uterine cervical Ca. patient #7, 1:100 dilution): 11 | Fluorescence intesity (serum of Uterine cervical Ca. patient #8, 1:100 dilution): 24 | Fluorescence intesity (serum of Uterine cervical Ca. patient #9, 1:100 dilution): 82 | Fluorescence intesity (serum of Uterine cervical Ca. patient #10, 1:100 dilution): 13 | Fluorescence intesity (serum of Uterine cervical Ca. patient #11, 1:100 dilution): 20 | Fluorescence intesity (serum of Uterine cervical Ca. patient #12, 1:100 dilution): 37 | Fluorescence intesity (serum of Uterine cervical Ca. patient #13, 1:100 dilution): 20 | Fluorescence intesity (serum of Uterine cervical Ca. patient #14, 1:100 dilution): 16 | Fluorescence intesity (serum of Uterine cervical Ca. patient #15, 1:100 dilution): 87 | Fluorescence intesity (serum of Uterine cervical Ca. patient #16, 1:100 dilution): 179 | Fluorescence intesity (serum of Uterine cervical Ca. patient #17, 1:100 dilution): 45 | Fluorescence intesity (serum of Uterine cervical Ca. patient #18, 1:100 dilution): 42 | Fluorescence intesity (serum of Uterine cervical Ca. patient #19, 1:100 dilution): 41 | Fluorescence intesity (serum of Uterine cervical Ca. patient #20, 1:100 dilution): 100 | Fluorescence intesity (serum of Uterine cervical Ca. patient #21, 1:100 dilution): 20 | Fluorescence intesity (serum of Uterine cervical Ca. patient #22, 1:100 dilution): 20 | Fluorescence intesity (serum of Uterine cervical Ca. patient #23, 1:100 dilution): 44 | Fluorescence intesity (serum of Uterine cervical Ca. patient #24, 1:100 dilution): 1169 | Fluorescence intesity (serum of Uterine cervical Ca. patient #25, 1:100 dilution): 15 | Fluorescence intesity (serum of Uterine cervical Ca. patient #26, 1:100 dilution): 106 | Fluorescence intesity (serum of Uterine cervical Ca. patient #27, 1:100 dilution): 28 | Fluorescence intesity (serum of Uterine cervical Ca. patient #28, 1:100 dilution): 71 | Fluorescence intesity (serum of Uterine cervical Ca. patient #29, 1:100 dilution): 13 | Fluorescence intesity (serum of Uterine cervical Ca. patient #30, 1:100 dilution): 25 | Fluorescence intesity (serum of Uterine cervical Ca. patient #31, 1:100 dilution): 101 | Fluorescence intesity (serum of Uterine cervical Ca. patient #32, 1:100 dilution): 16 | Fluorescence intesity (serum of Uterine cervical Ca. patient #33, 1:100 dilution): 114 | Fluorescence intesity (serum of Uterine cervical Ca. patient #34, 1:100 dilution): 16 | Fluorescence intesity (serum of Uterine cervical Ca. patient #35, 1:100 dilution): 19
